Test results reported in publication PMC6684654 (Nature Communications, 2019).

Tests used:
[1] = tested on: NDM-1 K. pneumoniae XJ155020; test: Antibiotic susceptibility (MIC), automated identification system; assay type: cell-based; conditions: Supplementary Table 2; for MIC: Klebsiella pneumoniae
Text: (§1) Clinical isolate strains were identified and screened by the Phoenix 100 automated bacterial identification system to rapidly detect antimicrobial resistance. Total DNA was extracted by the TIANamp Bacteria DNA Kit according to the manufacturer’s protocol. The presence of blaNDM-1 was confirmed using a diagnostic kit for NDM-1 (Puruikang Bio Inc., Shenzhen, China) based on fluorescent quantitative polymerase chain reaction assay. According to the instruction, Ct values of less than 37 were considered positive.

NDM-1 E. coli XJ141026 = test: as above; assay type: cell-based; conditions: Supplementary Table 1; for MIC: Escherichia coli
Text: as §1

[2] = tested on: NDM-1 K. pneumoniae XJ155018; test: as above; assay type: cell-based; conditions: Supplementary Table 2; for MIC: Klebsiella pneumoniae
Text: as §1

[3] = tested on: NDM-1 K. pneumoniae XJ155019; test: as above; assay type: cell-based; conditions: Supplementary Table 2; for MIC: Klebsiella pneumoniae
Text: as §1

[4] = tested on: NDM-1 K. pneumoniae XJ155017; test: as above; assay type: cell-based; conditions: Supplementary Table 2; for MIC: Klebsiella pneumoniae
Text: as §1

E. coli ATCC25922 = test: as above; assay type: cell-based; conditions: Supplementary Table 1; for MIC: Escherichia coli, ATCC25922
Text: as §1

NDM-1 E. coli XJ141015 = test: as above; assay type: cell-based; conditions: Supplementary Table 1; for MIC: Escherichia coli
Text: as §1

NDM-1 E. coli XJ141047 = test: as above; assay type: cell-based; conditions: Supplementary Table 1; for MIC: Escherichia coli
Text: as §1

K. pneumoniae ATCC13883 = test: as above; assay type: cell-based; conditions: Supplementary Table 2; for MIC: Klebsiella pneumoniae, ATCC13883
Text: as §1

NDM-1 = NDM-1 (Klebsiella pneumoniae, UniProt C7C422); test: Zn2+ restoration assay; assay type: biochemical
Method: After incubating for 20 min at 30 °C, 50 μL of the mixture was added to the 96-well plate. […] The absorbance at 300 nm was monitored for 30 min at 30 °C. Percent residual activity was calculated from the thanatin-free control.

Chain of NDM-1 (C7C422 20-270, looked up, natural form): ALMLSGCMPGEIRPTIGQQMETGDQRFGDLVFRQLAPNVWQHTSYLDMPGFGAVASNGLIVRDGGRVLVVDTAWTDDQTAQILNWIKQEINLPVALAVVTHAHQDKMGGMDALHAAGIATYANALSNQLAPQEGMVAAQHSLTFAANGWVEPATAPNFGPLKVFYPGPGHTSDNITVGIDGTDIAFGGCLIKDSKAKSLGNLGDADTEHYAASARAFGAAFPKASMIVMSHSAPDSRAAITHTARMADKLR

## CO/N=C(\C(=O)N[C@@H]1C(=O)N2C(C(=O)[O-])=C(C[N+]3(C)CCCC3)CS[C@H]12)c1csc(N)n1 [Cefepime]
[1]
  MIC: > 16 µg/mL
  susceptibility class (MIC): R
NDM-1 E. coli XJ141026
  MIC: > 16 µg/mL
  susceptibility class (MIC): R
[2]
  MIC: > 16 µg/mL
  susceptibility class (MIC): R
[3]
  MIC: > 16 µg/mL
  susceptibility class (MIC): R
[4]
  MIC: > 16 µg/mL
  susceptibility class (MIC): R
E. coli ATCC25922
  MIC: ≤ 2 µg/mL
  susceptibility class (MIC): S
NDM-1 E. coli XJ141015
  MIC: > 16 µg/mL
  susceptibility class (MIC): R
NDM-1 E. coli XJ141047
  MIC: > 16 µg/mL
  susceptibility class (MIC): R
K. pneumoniae ATCC13883
  MIC: ≤ 2 µg/mL
  susceptibility class (MIC): S

## NCC[C@H](O)C(=O)N[C@@H]1C[C@H](N)[C@@H](O[C@H]2O[C@H](CN)[C@@H](O)[C@H](O)[C@H]2O)[C@H](O)[C@H]1O[C@H]1O[C@H](CO)[C@@H](O)[C@H](N)[C@H]1O [Amikacin]
[1]
  MIC: ≤ 8 µg/mL
  susceptibility class (MIC): S
NDM-1 E. coli XJ141026
  MIC: ≤ 8 µg/mL
  susceptibility class (MIC): S
[2]
  MIC: ≤ 8 µg/mL
  susceptibility class (MIC): S
[3]
  MIC: ≤ 8 µg/mL
  susceptibility class (MIC): S
[4]
  MIC: ≤ 8 µg/mL
  susceptibility class (MIC): S
E. coli ATCC25922
  MIC: ≤ 8 µg/mL
  susceptibility class (MIC): S
NDM-1 E. coli XJ141015
  MIC: ≤ 8 µg/mL
  susceptibility class (MIC): S
NDM-1 E. coli XJ141047
  MIC: ≤ 8 µg/mL
  susceptibility class (MIC): S
K. pneumoniae ATCC13883
  MIC: ≤ 8 µg/mL
  susceptibility class (MIC): S

## C[C@H]1COc2c(N3CCN(C)CC3)c(F)cc3c(=O)c(C(=O)O)cn1c23 [Levofloxacin]
[1]
  MIC: > 8 µg/mL
  susceptibility class (MIC): R
NDM-1 E. coli XJ141026
  MIC: > 8 µg/mL
  susceptibility class (MIC): R
[3]
  MIC: > 8 µg/mL
  susceptibility class (MIC): R
E. coli ATCC25922
  MIC: ≤ 1 µg/mL
  susceptibility class (MIC): S
NDM-1 E. coli XJ141015
  MIC: > 8 µg/mL
  susceptibility class (MIC): R
NDM-1 E. coli XJ141047
  MIC: ≤ 1 µg/mL
  susceptibility class (MIC): S
K. pneumoniae ATCC13883
  MIC: ≤ 1 µg/mL
  susceptibility class (MIC): S

## Cc1nnc(SCC2=C(C(=O)O)N3C(=O)[C@@H](NC(=O)Cn4cnnn4)[C@H]3SC2)s1 [Cefazolin]
[1]
  MIC: > 16 µg/mL
  susceptibility class (MIC): R
NDM-1 E. coli XJ141026
  MIC: > 16 µg/mL
  susceptibility class (MIC): R
[2]
  MIC: > 16 µg/mL
  susceptibility class (MIC): R
[3]
  MIC: > 16 µg/mL
  susceptibility class (MIC): R
[4]
  MIC: > 16 µg/mL
  susceptibility class (MIC): R
E. coli ATCC25922
  MIC: ≤ 4 µg/mL
  susceptibility class (MIC): S
NDM-1 E. coli XJ141015
  MIC: > 16 µg/mL
  susceptibility class (MIC): R
NDM-1 E. coli XJ141047
  MIC: > 16 µg/mL
  susceptibility class (MIC): R
K. pneumoniae ATCC13883
  MIC: ≤ 4 µg/mL
  susceptibility class (MIC): S

## CNC(C)C1CCC(N)C(OC2C(N)CC(N)C(OC3OCC(C)(O)C(NC)C3O)C2O)O1 (centres unmarked) [Gentamicin]
[1]
  MIC: ≤ 2 µg/mL
  susceptibility class (MIC): S
NDM-1 E. coli XJ141026
  MIC: > 8 µg/mL
  susceptibility class (MIC): R
[2]
  MIC: ≤ 2 µg/mL
  susceptibility class (MIC): S
[3]
  MIC: ≤ 2 µg/mL
  susceptibility class (MIC): S
[4]
  MIC: ≤ 2 µg/mL
  susceptibility class (MIC): S
E. coli ATCC25922
  MIC: ≤ 2 µg/mL
  susceptibility class (MIC): S
NDM-1 E. coli XJ141015
  MIC: ≤ 2 µg/mL
  susceptibility class (MIC): S
NDM-1 E. coli XJ141047
  MIC: > 8 µg/mL
  susceptibility class (MIC): R
K. pneumoniae ATCC13883
  MIC: ≤ 2 µg/mL
  susceptibility class (MIC): S

## O=S(=O)([O-])[O-].[Zn+2] [ZnSO4]
NDM-1; ZnSO4 0.1 μM, replicate 1
  NDM-1 residual activity %: 15.22%
NDM-1; ZnSO4 0.1 μM, replicate 2
  NDM-1 residual activity %: 16.97%
NDM-1; ZnSO4 0.1 μM, replicate 3
  NDM-1 residual activity %: 15.04%
NDM-1; ZnSO4 1 μM, replicate 1
  NDM-1 residual activity %: 27.47%
NDM-1; ZnSO4 1 μM, replicate 2
  NDM-1 residual activity %: 23.22%
NDM-1; ZnSO4 1 μM, replicate 3
  NDM-1 residual activity %: 15.46%
NDM-1; ZnSO4 5 μM, replicate 1
  NDM-1 residual activity %: 28.32%
NDM-1; ZnSO4 5 μM, replicate 2
  NDM-1 residual activity %: 25.17%
NDM-1; ZnSO4 5 μM, replicate 3
  NDM-1 residual activity %: 26.96%
NDM-1; ZnSO4 10 μM, replicate 1
  NDM-1 residual activity %: 32.34%
NDM-1; ZnSO4 10 μM, replicate 2
  NDM-1 residual activity %: 29.63%
NDM-1; ZnSO4 10 μM, replicate 3
  NDM-1 residual activity %: 36.06%
NDM-1; ZnSO4 50 μM, replicate 1
  NDM-1 residual activity %: 43.28%
NDM-1; ZnSO4 50 μM, replicate 2
  NDM-1 residual activity %: 51.47%
NDM-1; ZnSO4 50 μM, replicate 3
  NDM-1 residual activity %: 61.34%
NDM-1; ZnSO4 100 μM, replicate 1
  NDM-1 residual activity %: 56.06%
NDM-1; ZnSO4 100 μM, replicate 2
  NDM-1 residual activity %: 59.92%
NDM-1; ZnSO4 100 μM, replicate 3
  NDM-1 residual activity %: 88.19%
NDM-1; ZnSO4 200 μM, replicate 1
  NDM-1 residual activity %: 61.18%
NDM-1; ZnSO4 200 μM, replicate 2
  NDM-1 residual activity %: 100.32%
NDM-1; ZnSO4 200 μM, replicate 3
  NDM-1 residual activity %: 93.90%
NDM-1; ZnSO4 400 μM, replicate 1
  NDM-1 residual activity %: 95.69%
NDM-1; ZnSO4 400 μM, replicate 2
  NDM-1 residual activity %: 105.75%
NDM-1; ZnSO4 400 μM, replicate 3
  NDM-1 residual activity %: 98.26%
NDM-1; ZnSO4 800 μM, replicate 1
  NDM-1 residual activity %: 94.91%
NDM-1; ZnSO4 800 μM, replicate 2
  NDM-1 residual activity %: 111.23%
NDM-1; ZnSO4 800 μM, replicate 3
  NDM-1 residual activity %: 106.26%
